From patent US20160083391A1, “TRICYCLIC PIPERAZINE DERIVATIVE” (Sunovion Pharmaceuticals Inc., priority 2014, published 2016)

System: PDE1
Test: In vitro HTRF PDE1 inhibition assay
Assay type: biochemical
Conditions: HTRF cGMP assay, 100 nM cyclic GMP, PDE (1A3, 1B or 1C) with calmodulin, 45 minutes at 37° C.; isoform of the tabulated values not stated
From the text: An exemplary procedure for the in vitro Homogenous Time Resolved Fluorescence assay, which can be used to determine the inhibitory action of compounds of the invention toward. PDE1 or its isoforms, follows.
The HTRF PDE1 assay utilized the HTRF (Homogenous Time Resolved Fluorescence) technology, which is based on the competition between unlabeled cyclic nucleotide and cyclic nucleotide labeled with XL665 for the binding to cyclic nucleotide-specific antibody labeled with cryptate. The HTRF signal is thus inversely proportional to the concentration of cyclic nucleotide being measured. Since phosphodiesterases break down cyclic nucleotides the HTRF signal was used to determine PDE activity.
The Cisbio cGMP HTRF assay kit (Cat no: 62GM2PEC) was utilized. Cyclic GMP was diluted to 200 nM in HTRF assay buffer (1 mM CaCl2, 10 mM MgCl2, 10 mM Tris-HCl, 0.1% BSA, pH7.4). 10 μl of compound or DMSO was diluted in 200 nM cyclic GMP solution and added to wells of a 96 well white plate to give 100 nM cyclic GMP in 1% DMSO final concentration. PDE (1A3, 1B or 1C) was diluted to 2× working concentration in HTRF assay buffer with […] Calmodulin, and 10 μl was added to initiate the reaction. The plate was then incubated for 45 minutes at 37° C. d2-Labelled cyclic GMP and anti-cGMP cryptate were diluted in 50 mM phosphate buffer, 0.8M KF, 1% Triton X100, 0.2% BSA, pH7.0. Following incubation 10 μl d2-cGMP, then 10 μl anti cGMP cryptate were added to each well and the plate was incubated for 45 minutes at room temperature. The plate was then read on Perkin Elmer Victor at 2 different FRET readings ex/emm 340 nm/665 nm and 340 nm/615 nm.
Compounds having an IC50 of <1 μM, are denoted as +++. Compounds having an IC50 of 1-10 μM, are denoted as ++. Compounds having an IC50 of >10 μM, are denoted as +.

| SMILES | IC50 [µM] |
| --- | --- |
| CC1NCCn2c1nc1c(cnn1C)c2=O (racemic) [Compound I-3, (±)-1,9-Dimethyl-6,7,8,9-tetrahydropyrazino[1,2-a]pyrazolo[3,4-d]pyrimidin-4(1H)-one] | > 10 |
| CC1NCCn2c1nc1c(cnn1C(C)C)c2=O (racemic) [Compound I-4, (±)-1-Isopropyl-9-methyl-6,7,8,9-tetrahydropyrazino[1,2-a]pyrazolo[3,4-d]pyrimidin-4(1H)-one] | > 10 |
| CC1NCCn2c1nc1c(cnn1-c1ccccc1)c2=O (racemic) [Compound I-5, (±)-9-Methyl-1-phenyl-6,7,8,9-tetrahydropyrazino[1,2-a]pyrazolo[3,4-d]pyrimidin-4(1H)-one] | > 10 |
| O=c1c2cn[nH]c2nc2n1CCNC2Cc1ccccc1 (racemic) [Compound I-6, (±)-9-Benzyl-6,7,8,9-tetrahydropyrazino[1,2-a]pyrazolo[3,4-d]pyrimidin-4(1H)-one] | > 10 |
| Cn1ncc2c(=O)n3c(nc21)C(Cc1ccccc1)NCC3 (racemic) [Compound I-7, (±)-9-Benzyl-1-methyl-6,7,8,9-tetrahydropyrazino[1,2-a]pyrazolo[3,4-d]pyrimidin-4(1H)-one] | > 10 |
| CC(C)n1ncc2c(=O)n3c(nc21)C(Cc1ccccc1)NCC3 (racemic) [Compound I-8, (±)-9-Benzyl-1-isopropyl-6,7,8,9-tetrahydropyrazino[1,2-a]pyrazolo[3,4-d]pyrimidin-4(1H)-one] | 1 to 10 |
| O=c1c2cnn(-c3ccccc3)c2nc2n1CCNC2Cc1ccccc1 (racemic) [Compound I-9, (±)-9-Benzyl-1-phenyl-6,7,8,9-tetrahydropyrazino[1,2-a]pyrazolo[3,4-d]pyrimidin-4(1H)-one] | > 10 |
| CC(C)c1n[nH]c2c(=O)n3c(nc12)C(C)NCC3 (racemic) [Compound I-11, (±)-3-Isopropyl-5-methyl-5,6,7,8-tetrahydropyrazino[1,2-a]pyrazolo[4,3-d]pyrimidin-10(1H)-one] | > 10 |
| CC(C)c1n[nH]c2c(=O)n3c(nc12)C(Cc1ccccc1)NCC3 (racemic) [Compound I-12, (±)-5-Benzyl-3-isopropyl-5,6,7,8-tetrahydropyrazino[1,2-a]pyrazolo[4,3-d]pyrimidin-10(1H)-one] | > 10 |
| CC(C)c1nn(C)c2c(=O)n3c(nc12)C(C)NCC3 (racemic) [Compound I-14, (±)-3-Isopropyl-1,5-dimethyl-5,6,7,8-tetrahydropyrazino[1,2-a]pyrazolo[4,3-d]pyrimidin-10(1H)-one] | > 10 |
| CC(C)c1nn(C)c2c(=O)n3c(nc12)C(Cc1ccccc1)NCC3 (racemic) [Compound I-15, (±)-5-Benzyl-3-isopropyl-1-methyl-5,6,7,8-tetrahydropyrazino[1,2-a]pyrazolo[4,3-d]pyrimidin-10(1H)-one] | > 10 |
| CC1c2nc3c(cnn3C)c(=O)n2CCN1C (racemic) [Compound I-20, (±)-1,8,9-Trimethyl-6,7,8,9-tetrahydropyrazino[1,2-a]pyrazolo[3,4-d]pyrimidin-4(1H)-one] | > 10 |
| CC1c2nc3c(cnn3C(C)C)c(=O)n2CCN1C (racemic) [Compound I-21, (±)-1-Isopropyl-8,9-dimethyl-6,7,8,9-tetrahydropyrazino[1,2-a]pyrazolo[3,4-d]pyrimidin-4(1H)-one] | > 10 |
| CC1c2nc3c(cnn3-c3ccccc3)c(=O)n2CCN1C (racemic) [Compound I-22, (±)-8,9-Dimethyl-1-phenyl-6,7,8,9-tetrahydropyrazino[1,2-a]pyrazolo[3,4-d]pyrimidin-4(1H)-one] | > 10 |
| CN1CCn2c(nc3[nH]ncc3c2=O)C1Cc1ccccc1 (racemic) [Compound I-23, (±)-9-Benzyl-8-methyl-6,7,8,9-tetrahydropyrazino[1,2-a]pyrazolo[3,4-d]pyrimidin-4(1H)-one] | > 10 |
| CN1CCn2c(nc3c(cnn3C)c2=O)C1Cc1ccccc1 (racemic) [Compound I-24, (±)-9-Benzyl-1,8-dimethyl-6,7,8,9-tetrahydropyrazino[1,2-a]pyrazolo[3,4-d]pyrimidin-4(1H)-one] | > 10 |

| SMILES | IC50 [µM] |
| --- | --- |
| CC(C)n1ncc2c(=O)n3c(nc21)C(Cc1ccccc1)N(C)CC3 (racemic) [Compound I-25, (±)-9-Benzyl-1-isopropyl-8-methyl-6,7,8,9-tetrahydropyrazino[1,2-a]pyrazolo[3,4-d]pyrimidin-4(1H)-one] | > 10 |
| CN1CCn2c(nc3c(cnn3-c3ccccc3)c2=O)C1Cc1ccccc1 (racemic) [Compound I-26, (±)-9-Benzyl-8-methyl-1-phenyl-6,7,8,9-tetrahydropyrazino[1,2-a]pyrazolo[3,4-d]pyrimidin-4(1H)-one] | > 10 |
| CC1c2nc3c(cnn3C)c(=O)n2CCN1Cc1ccccc1 (racemic) [Compound I-31, (±)-8-Benzyl-1,9-dimethyl-6,7,8,9-tetrahydropyrazino[1,2-a]pyrazolo[3,4-d]pyrimidin-4(1H)-one] | > 10 |
| CC1c2nc3c(cnn3C(C)C)c(=O)n2CCN1Cc1ccccc1 (racemic) [Compound I-32, (±)-8-Benzyl-1-isopropyl-9-methyl-6,7,8,9-tetrahydropyrazino[1,2-a]pyrazolo[3,4-d]pyrimidin-4(1H)-one] | > 10 |
| CC1c2nc3c(cnn3-c3ccccc3)c(=O)n2CCN1Cc1ccccc1 (racemic) [Compound I-33, (±)-8-Benzyl-9-methyl-1-phenyl-6,7,8,9-tetrahydropyrazino[1,2-a]pyrazolo[3,4-d]pyrimidin-4(1H)-one] | > 10 |
| O=c1c2cn[nH]c2nc2n1CCN(Cc1ccccc1)C2Cc1ccccc1 (racemic) [Compound I-34, (±)-8,9-Dibenzyl-6,7,8,9-tetrahydropyrazino[1,2-a]pyrazolo[3,4-d]pyrimidin-4(1H)-one] | > 10 |
| Cn1ncc2c(=O)n3c(nc21)C(Cc1ccccc1)N(Cc1ccccc1)CC3 (racemic) [Compound I-35, (±)-8,9-Dibenzyl-1-methyl-6,7,8,9-tetrahydropyrazino[1,2-a]pyrazolo[3,4-d]pyrimidin-4(1H)-one] | > 10 |
| CC(C)n1ncc2c(=O)n3c(nc21)C(Cc1ccccc1)N(Cc1ccccc1)CC3 (racemic) [Compound I-36, (±)-8,9-Dibenzyl-1-Isopropyl-6,7,8,9-tetrahydropyrazino[1,2-a]pyrazolo[3,4-d]pyrimidin-4(1H)-one] | > 10 |
| O=c1c2cnn(-c3ccccc3)c2nc2n1CCN(Cc1ccccc1)C2Cc1ccccc1 (racemic) [Compound I-37, (±)-8,9-Dibenzyl-1-phenyl-6,7,8,9-tetrahydropyrazino[1,2-a]pyrazolo[3,4-d]pyrimidin-4(1H)-one] | > 10 |
| CC(C)c1n[nH]c2c(=O)n3c(nc12)C(C)N(C)CC3 (racemic) [Compound I-38, (±)-3-Isopropyl-5,6-dimethyl-5,6,7,8-tetrahydropyrazino[1,2-a]pyrazolo[4,3-d]pyrimidin-10(1H)-one] | > 10 |
| CC(C)c1n[nH]c2c(=O)n3c(nc12)C(Cc1ccccc1)N(C)CC3 (racemic) [Compound I-39, (±)-5-Benzyl-3-isopropyl-6-methyl-5,6,7,8-tetrahydropyrazino[1,2-a]pyrazolo[4,3-d]pyrimidin-10(1H)-one] | > 10 |
| CC(C)c1nn(C)c2c(=O)n3c(nc12)C(C)N(C)CC3 (racemic) [Compound I-41, (±)-3-Isopropyl-1,5,6-trimethyl-5,6,7,8-tetrahydropyrazino[1,2-a]pyrazolo[4,3-d]pyrimidin-10(1H)-one] | > 10 |
| CC(C)c1nn(C)c2c(=O)n3c(nc12)C(Cc1ccccc1)N(C)CC3 (racemic) [Compound I-42, (±)-5-Benzyl-3-isopropyl-1,6-dimethyl-5,6,7,8-tetrahydropyrazino[1,2-a]pyrazolo[4,3-d]pyrimidin-10(1H)-one] | > 10 |
| CC(C)c1n[nH]c2c(=O)n3c(nc12)C(C)N(Cc1ccccc1)CC3 (racemic) [Compound I-44, (±)-6-Benzyl-3-isopropyl-5-methyl-5,6,7,8-tetrahydropyrazino[1,2-a]pyrazolo[4,3-d]pyrimidin-10(1H)-one] | > 10 |
| CC(C)c1n[nH]c2c(=O)n3c(nc12)C(Cc1ccccc1)N(Cc1ccccc1)CC3 (racemic) [Compound I-45, (±)-5,6-dibenzyl-3-isopropyl-5,6,7,8-tetrahydropyrazino[1,2-a]pyrazolo[4,3-d]pyrimidin-10(1H)-one] | > 10 |
| CC(C)c1nn(C)c2c(=O)n3c(nc12)C(C)N(Cc1ccccc1)CC3 (racemic) [Compound I-47, (±)-6-Benzyl-3-isopropyl-1,5-dimethyl-5,6,7,8-tetrahydropyrazino[1,2-a]pyrazolo[4,3-d]pyrimidin-10(1H)-one] | > 10 |
